Series [1] relates to bone marrow derived mast cells (BMMC). In words: BMMC high cell density IgE activation: TNFalpha. Particulars: read-out: BMMC anti-IgE TNF-alpha. The class given is cell-based, mouse. The procedure, abridged:
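Mediator release from sensitized BMMC: after 1 h compound exposure at 37 °C (0.5% DMSO), cells challenged with DNP-BSA for 1 h and early supernatant collected. Cells then recultured 4-5 h in conditioned medium with compound; cytokines IL-6 and TNFα quantified by ELISA.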

The subject of series [2] is differentiated human macrophages. In words: Macrophage activation, IgG stimulation: IL-6. The class given is cell-based. Particulars: stimulus (IgG or LPS) not given; read-out: Monocytes/Macrophage IL-6 IC50. On the procedure: CD 14+ monocytes were purified from PBMC (Allcells # PB002) using the Monocyte Isolation kit (Miltenyi biotec #130-045-501) as per the manufacturer's instructions. Purity was assessed by measuring the percentage of CD14+ cells by flow cytometry. Typically >90% purity is achieved. The purified CD14+ cells are then plated out (6×10^6 cells/150 cm TC dish in 15 mls media) in Macrophage-SFM (Gibco #12065-074) with 100 ng/ml of M-CSF (Pepro Tech #300-25) and allowed to differentiate for five days. At the end of that period, cell morphology and cell surface markers (CD14, HLA-DR, B7.1, B7.2, CD64, CD32, and CD16) reflected the presence of mature differentiated macrophage.
A negative control consisting of the F(ab′)2 fragment was also coated to assess background stimulation. Unbound antibody was washed away 2× with 200 ul PBS. 20 ul of 5× compound was added to each well, followed by the addition 15 k cells of differentiated macrophage in 80 uL that had been scraped off of the plates. The cells were incubated for 16 hr in a 37° C. incubator, and supernatants were collected for Luminex analysis for IL-6 and TNFα, essentially as described for the primary T-cells, above.
Varied concentrations of compound were compared to solvent only to determine the IC50 of each compound for each cytokine Representative IC50 s for 2,4-pyrimidinediamine compounds of the invention are shown in Table 11.

The test system of series [3] is IgE-induced degranulation of tissue mast cells. Description: Mouse model of passive cutaneous anaphylaxis (PCA). In kind it is in vivo. Particulars: for % Inhibition: PO; for FcεR-mediated vascular leakage: increasing doses; for Plasma level: duration of action (TABLE 4): PO. The protocol:
This model provides a direct measure of IgE-induced degranulation of tissue mast cells. In this model, IgE primed animals are exposed to an allergen challenge, and the change in permeability of dermal vasculature that results from histamine release from mast cells is measured by change in the amount of dye leakage into surrounding tissue. Inhibition of mediator release by compounds that modulate mast cell degranulation is easily measured by extracting the dye from the tissue.
In the PCA assay mice are passively sensitized by intradermal injection with anti-dinitrophenol (DNP) IgE antibodies (Day −1). At predetermined times animals are treated with the test agent (Day 0). The modulatory effect of the agent on cutaneous mast cell degranulation is measured following intravenous injection of DNP conjugated to human serum albumin (HSA-DNP), together with Evans blue dye. The resulting cross-linking of the IgE receptor and subsequent mast cell degranulation-induced increase in vascular permeability is determined by measuring the amount of dye extravasation into the tissue. Dye is extracted from the tissue by formamide, and the absorbance of this extract is read at 620 nm.

The subject of series [4] is basophil cells (human peripheral blood). Description: Basophil anti-IgE activation: histamine release assay. In kind it is cell-based. The procedure, abridged:
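Histamine in supernatants was quantified by ELISA after 30-minute stimulation at 37 °C of red-cell-depleted peripheral blood cells from dust-mite-allergic donors. Cells were first combined with compound across an 8-concentration range in 0.5% DMSO, in triplicate.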

The test system of the next series is Jurkat cells. In words: Jurkat (T-cell) toxicity, light scatter. In kind it is cell-based, human. Particulars: read-out: Toxicity Jurkat Light Scat. On the procedure:
Dilute Jurkat cells to 2×10^5 cells/ml in complete RPMI (10% heat-inactivated fetal bovine serum) media and incubate at 37° C., 5% CO2 for 18 hours. Add 65 ul cells at 7.7×10^5 cells/ml to a 96-well V-bottom plate (TC-treated, Costar) containing 65 ul 2× compound (final vehicle concentration is 0.5% DMSO, 1.5% MeOH). Mix, incubate plates for 18-24 hr at 37° C., 5% CO2. Toxicity was assessed by flow cytometric analysis of cellular light scatter

Setting [5] is: basophils, anti-IgE activation, histamine release, read-out: Basophils anti-IgE Histamine IC50.

Read-outs that look alike come from different tables or passages of the source.

The text below walks through data of patent US8158621B2, “Methods of treating or preventing autoimmune diseases with 2,4-pyrimidinediamine compounds” (Rigel Pharmaceuticals, Inc., priority 2002, dated 2012).

For the compound `CC1(C)Oc2ccc(Nc3nc(Nc4cc(Cl)cc(Cl)c4)ncc3F)cc2NC1=O` [Compound R927064], the IC50 in series [1] (high cell density) came out at 1920 nM.
On to `CNC(=O)COc1cccc(Nc2ncc(F)c(Nc3ccc4c(n3)NC(=O)C(C)(C)O4)n2)c1` [Compound R940347], for which the IC50 in series [2] came to 19 nM.
In the case of `OCCCn1ncc2cc(Nc3ncc(F)c(Nc4ccc(Cl)c(Cl)c4)n3)ccc21` [Compound R935391], the IC50 in series [1] (high cell density) was determined as 190 nM; in series [2] it was 959 nM.
Consider `CNC(=O)COc1cccc(Nc2ncc(F)c(Nc3ccc4c(c3)NCCO4)n2)c1` [Compound R921219], for which the “% Inhibition” value stood at 25% in series [3] (1.5% Avicel/water, pretreatment 15 min, 30 mg/kg); 68% in series [3] (1.5% Avicel/water, pretreatment 15 min, 100 mg/kg); 92% in series [3] (1.5% Avicel/water, pretreatment 15 min, 300 mg/kg). In series [3] (dose level of 100 mg/kg), the “circulating exposure levels at which active” value was “approximately 10 μg/m1”. In series [3], the FcεR-mediated vascular leakage result was “dose-dependent inhibition”.
`Fc1cnc(Nc2ccc3c(c2)OCCO3)nc1Nc1ccc2c(c1)OCCO2` [Compound R926109]: the results for the IC50 (in series [4] (setting [5]); in the series with Jurkat cells) were 150 nM and > 10000 nM, respectively. Moreover, the “% Inhibition” value in series [3] (67% PEG/33% citrate buffer, pretreatment 15 min, 50 mg/kg) worked out at 22%; in series [3] (67% PEG/33% citrate buffer, pretreatment 15 min, 100 mg/kg), 32%; in series [3] (67% PEG/33% citrate buffer, pretreatment 15 min, 200 mg/kg) it was 48%. Further, the FcεR-mediated vascular leakage result in series [3] is on record as “dose-dependent inhibition”.
Regarding `COc1ccc(Nc2ncc(F)c(Nc3ccc(OC)c(OC)c3)n2)cc1OC` [Compound R926110], the values for the IC50 (in series [4] (setting [5]); in the series with Jurkat cells) were 300 nM and > 10000 nM, respectively.
For the compound `COc1cc(Nc2ncc(F)c(Nc3ccc4c(c3)NC(=O)C(C)(C)O4)n2)cc(OC)c1` [Compound R927050], the IC50 in series [1] (high cell density) stood at 19 nM; in series [2], 66 nM.
Turning to `Nc1cccc(Nc2ncc(F)c(Nc3cccc(N)c3)n2)c1` [Compound R921302], the IC50 in series [4] (read-out: Basophils anti-IgE Histamine) is 190 nM. Further, the Plasma level in series [3] (1.5% Avicel/water, 200 mg/kg, pretreatment 30 min) is 88 µg/mL; in series [3] (1.5% Avicel/water, 200 mg/kg, pretreatment 60 min), 53 µg/mL; in series [3] (1.5% Avicel/water, 200 mg/kg, pretreatment 120 min) it was 61 µg/mL; in series [3] (1.5% Avicel/water, 200 mg/kg, pretreatment 240 min), 8 µg/mL. The FcεR-mediated vascular leakage result in series [3] is “dose-dependent inhibition”.
As to `Oc1cccc(Nc2ncc(F)c(Nc3cccc(O)c3)n2)c1` [Compound R921218], the IC50 is 274 nM in series [1] (High Density), 240 nM in series [4] (setting [5]) and > 10000 nM with Jurkat cells. In addition, the “% Inhibition” value worked out at 7% in series [3] (67% PEG/33% citrate buffer, pretreatment 10 min, 50 mg/kg); 11% in series [3] (67% PEG/33% citrate buffer, pretreatment 10 min, 100 mg/kg); 50% in series [3] (67% PEG/33% citrate buffer, pretreatment 10 min, 200 mg/kg). Further, in series [3], the FcεR-mediated vascular leakage result is recorded as “dose-dependent inhibition”.
`CC1(C)Oc2ccc(Nc3nc(Nc4ccc5cn[nH]c5c4)ncc3F)cc2NC1=O` [Compound R940363]: in series [2], the IC50 stood at 95 nM.
For the compound `COc1ccc(Nc2ncc(F)c(Nc3cccc(O)c3)n2)cc1OC` [Compound R926113], the results for the IC50 (in series [4] (setting [5]); with Jurkat cells) were 270 nM and > 10000 nM, respectively.
